Measurements: PMC3116712 (ACS medicinal chemistry letters, 2011)

Key:
A/M2-V27A mutant channel = A/M2-V27A mutant channel (Influenza A virus, UniProt P0DOF5, V27A); assay type: cell-based
A/M2 S31N mutant = A/M2 S31N mutant (Influenza A virus, UniProt P0DOF5, S31N); assay type: cell-based

| Compound | percentage inhibition against V27A mutant of A/M2 (A/M2-V27A mutant channel; 100 µM) | inhibitory effect on V27A mutant (in words) (A/M2-V27A mutant channel) | inhibitory effect on S31N mutant (in words) (A/M2 S31N mutant) |
| --- | --- | --- | --- |
| Cl.NC12CC3CC(CC(C3)C1)C2 [Amantadine, reference compound] | 0% |  |  |
| Cl.NC(CO)C12CC3CC(CC(C3)C1)C2 (stereo not drawn) [Compound 27] |  | no inhibitory effect | no inhibitory effect |
